From PubChem BioAssay (NCI)
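Growth conditions: 96-well plates. Treatment: test compound, 48 hours, 5 concentrations. Analysis: linear interpolation between bracketing concentrations; unreached endpoints set to highest concentration. At the TGI there is no net growth.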

Columns and labels:
Test in all cases: DTP human tumour cell line panel, 48 h
786-0 renal = test system: 786-0 renal
A498 renal = test system: A498 renal
A549 NSCLC = test system: A549 NSCLC
ACHN renal = test system: ACHN renal
BT-549 breast = test system: BT-549 breast
CAKI-1 renal = test system: CAKI-1 renal
DU-145 prostate = test system: DU-145 prostate
EKVX NSCLC = test system: EKVX NSCLC
HCC-2998 colon = test system: HCC-2998 colon
HCT-116 colon = test system: HCT-116 colon
HCT-15 colon = test system: HCT-15 colon
HL-60(TB) leukemia = test system: HL-60(TB) leukemia
HOP-62 NSCLC = test system: HOP-62 NSCLC
HOP-92 NSCLC = test system: HOP-92 NSCLC
HS 578T breast = test system: HS 578T breast
HT29 colon = test system: HT29 colon
IGROV1 ovarian = test system: IGROV1 ovarian
LOX IMVI melanoma = test system: LOX IMVI melanoma
M14 melanoma = test system: M14 melanoma
MALME-3M melanoma = test system: MALME-3M melanoma
MCF7 breast = test system: MCF7 breast
MDA-MB-435 = test system: MDA-MB-435
MDA-N = test system: MDA-N
MOLT-4 leukemia = test system: MOLT-4 leukemia
NCI-H226 lung = test system: NCI-H226 lung
NCI-H23 lung = test system: NCI-H23 lung
NCI-H460 lung = test system: NCI-H460 lung
NCI-H522 lung = test system: NCI-H522 lung
NCI/ADR-RES ovarian = test system: NCI/ADR-RES ovarian
OVCAR-3 ovarian = test system: OVCAR-3 ovarian
OVCAR-4 ovarian = test system: OVCAR-4 ovarian
OVCAR-5 ovarian = test system: OVCAR-5 ovarian
OVCAR-8 ovarian = test system: OVCAR-8 ovarian
PC-3 prostate = test system: PC-3 prostate
RPMI-8226 leukemia = test system: RPMI-8226 leukemia
RXF 393 renal = test system: RXF 393 renal
SF-268 CNS = test system: SF-268 CNS
SF-295 CNS = test system: SF-295 CNS
SF-539 CNS = test system: SF-539 CNS
SK-MEL-2 melanoma = test system: SK-MEL-2 melanoma
SK-MEL-28 melanoma = test system: SK-MEL-28 melanoma
SK-MEL-5 melanoma = test system: SK-MEL-5 melanoma
SN12C renal = test system: SN12C renal
SNB-19 CNS = test system: SNB-19 CNS
SNB-75 CNS = test system: SNB-75 CNS
SW-620 colon = test system: SW-620 colon
T-47D breast = test system: T-47D breast
TK-10 renal = test system: TK-10 renal
U251 CNS = test system: U251 CNS
UACC-257 melanoma = test system: UACC-257 melanoma
UACC-62 melanoma = test system: UACC-62 melanoma
UO-31 renal = test system: UO-31 renal
CCRF-CEM leukemia = test system: CCRF-CEM leukemia
COLO 205 colon = test system: COLO 205 colon
K-562 leukemia = test system: K-562 leukemia
KM12 colon = test system: KM12 colon
MDA-MB-231 breast = test system: MDA-MB-231 breast
SK-OV-3 ovarian = test system: SK-OV-3 ovarian
SR leukemia = test system: SR leukemia

With `CCOc1cccc(-c2cc(=O)c3cc4c(cc3[nH]2)OCO4)c1` the TGI (786-0 renal) was 7.06 µM, the TGI (A498 renal) was greater than 100 µM and the TGI (A549 NSCLC) was 28.9 µM. It also gave a TGI (ACHN renal) greater than 62.3 µM, a TGI (BT-549 breast) greater than 100 µM and a TGI (CAKI-1 renal) of 9.67 µM. It also gave a TGI (DU-145 prostate) greater than 100 µM, a TGI (EKVX NSCLC) greater than 100 µM and a TGI (HCC-2998 colon) of 0.695 µM. The TGI (HCT-116 colon) was 7.85 µM, the TGI (HCT-15 colon) was 0.52 µM and the TGI (HL-60(TB) leukemia) was greater than 100 µM. For the same compound, the TGI (HOP-62 NSCLC) was greater than 100 µM, the TGI (HOP-92 NSCLC) was 6.04 µM and the TGI (HS 578T breast) was 13.5 µM. It also gave a TGI (HT29 colon) of 0.593 µM, a TGI (IGROV1 ovarian) greater than 100 µM and a TGI (LOX IMVI melanoma) greater than 100 µM. The TGI (M14 melanoma) was greater than 37.6 µM, the TGI (MALME-3M melanoma) was greater than 75.1 µM and the TGI (MCF7 breast) was greater than 100 µM. The TGI (MDA-MB-435) was 0.0528 µM, the TGI (MDA-N) was greater than 100 µM and the TGI (MOLT-4 leukemia) was greater than 100 µM. It also gave a TGI (NCI-H226 lung) of 15.1 µM, a TGI (NCI-H23 lung) greater than 100 µM and a TGI (NCI-H460 lung) greater than 61.8 µM. The TGI (NCI-H522 lung) was 0.684 µM, the TGI (NCI/ADR-RES ovarian) was 0.294 µM and the TGI (OVCAR-3 ovarian) was 3.88 µM. It also gave a TGI (OVCAR-4 ovarian) greater than 100 µM, a TGI (OVCAR-5 ovarian) greater than 100 µM and a TGI (OVCAR-8 ovarian) of 2.7 µM. The TGI (PC-3 prostate) was greater than 100 µM, the TGI (RPMI-8226 leukemia) was greater than 100 µM and the TGI (RXF 393 renal) was 1.82 µM. For the same compound, the TGI (SF-268 CNS) was greater than 82.1 µM, the TGI (SF-295 CNS) was 0.329 µM and the TGI (SF-539 CNS) was 0.549 µM. For the same compound, the TGI (SK-MEL-2 melanoma) was 24.9 µM, the TGI (SK-MEL-28 melanoma) was greater than 100 µM and the TGI (SK-MEL-5 melanoma) was greater than 100 µM. For the same compound, the TGI (SN12C renal) was 5.38 µM, the TGI (SNB-19 CNS) was greater than 27.1 µM and the TGI (SNB-75 CNS) was 36.1 µM. The TGI (SW-620 colon) was greater than 100 µM, the TGI (T-47D breast) was greater than 100 µM and the TGI (TK-10 renal) was 8.45 µM. For the same compound, the TGI (U251 CNS) was 3.44 µM, the TGI (UACC-257 melanoma) was greater than 100 µM and the TGI (UACC-62 melanoma) was 21.1 µM. For the same compound, the TGI (UO-31 renal) was 35.2 µM.
`NC(=O)Cn1c(=O)oc2cc(C(=O)CN3CCOCC3)ccc21` was tested, and the TGI (786-0 renal) was greater than 100 µM, the TGI (A498 renal) was greater than 100 µM and the TGI (CAKI-1 renal) was greater than 100 µM. The TGI (CCRF-CEM leukemia) was greater than 100 µM, the TGI (COLO 205 colon) was greater than 100 µM and the TGI (DU-145 prostate) was greater than 100 µM. For the same compound, the TGI (EKVX NSCLC) was greater than 100 µM, the TGI (HCT-116 colon) was greater than 100 µM and the TGI (HL-60(TB) leukemia) was greater than 100 µM. The TGI (HOP-62 NSCLC) was greater than 100 µM, the TGI (HS 578T breast) was greater than 100 µM and the TGI (HT29 colon) was greater than 100 µM. It also gave a TGI (IGROV1 ovarian) greater than 100 µM, a TGI (K-562 leukemia) greater than 100 µM and a TGI (KM12 colon) greater than 100 µM. The TGI (LOX IMVI melanoma) was greater than 100 µM, the TGI (M14 melanoma) was greater than 100 µM and the TGI (MALME-3M melanoma) was greater than 100 µM. It also gave a TGI (MCF7 breast) greater than 100 µM, a TGI (MDA-MB-231 breast) greater than 100 µM and a TGI (MDA-MB-435) greater than 100 µM. For the same compound, the TGI (MDA-N) was greater than 100 µM, the TGI (MOLT-4 leukemia) was greater than 100 µM and the TGI (NCI-H226 lung) was greater than 100 µM. The TGI (NCI/ADR-RES ovarian) was greater than 100 µM, the TGI (OVCAR-3 ovarian) was greater than 100 µM and the TGI (OVCAR-5 ovarian) was greater than 100 µM. It also gave a TGI (OVCAR-8 ovarian) greater than 100 µM, a TGI (PC-3 prostate) greater than 100 µM and a TGI (RPMI-8226 leukemia) greater than 100 µM. For the same compound, the TGI (RXF 393 renal) was greater than 100 µM, the TGI (SF-268 CNS) was greater than 100 µM and the TGI (SF-295 CNS) was greater than 100 µM. The TGI (SF-539 CNS) was greater than 100 µM, the TGI (SK-MEL-2 melanoma) was greater than 100 µM and the TGI (SK-MEL-28 melanoma) was greater than 100 µM. For the same compound, the TGI (SK-MEL-5 melanoma) was greater than 100 µM, the TGI (SK-OV-3 ovarian) was greater than 100 µM and the TGI (SN12C renal) was greater than 100 µM. It also gave a TGI (SNB-19 CNS) greater than 100 µM, a TGI (SNB-75 CNS) greater than 100 µM and a TGI (SR leukemia) greater than 100 µM. It also gave a TGI (SW-620 colon) greater than 100 µM and a TGI (U251 CNS) greater than 100 µM.
